{"source": "ChEMBL document CHEMBL5380860", "about": "“Design, Synthesis, and Antitumor Activity of Potent and Selective EGFR L858R/T790M Inhibitors and Identification of a Combination Therapy to Overcome Acquired Resistance in Models of Non-small-cell Lung Cancer” (J Med Chem, 2023)", "key": {"[1]": {"assay": "AUC (0 to infinity) in Sprague-Dawley rat at 1 mg/kg, iv by LC-MS analysis", "assay_type": "ADME, organism-based", "parameters": "dose 1 mg/kg, route iv", "conditions": "in vivo"}, "[2]": {"assay": "Covalent binding affinity to L-cysteine assessed as increase in 619.2 Da mass at L-cysteine to compound concentration ratio of 1:4 incubated for 8 hrs by LC-MS analysis"}, "Mus musculus [3]": {"tested_on": "Mus musculus", "assay": "In vivo inhibition of EGFR L858R/T790M mutant in ip dosed NCI-H1975 cells xenografted BALB/c mouse assessed as inhibition of ERK-1/2 phosphorylation in tumor by immunoblot analysis", "assay_type": "functional, organism-based", "conditions": "dose 5-20 mg/kg/day"}, "Mus musculus [4]": {"tested_on": "Mus musculus", "assay": "In vivo inhibition of EGFR L858R/T790M mutant in N-(3-((6-Fluoro-2-((4-(4-methylpiperazin-1-yl)phenyl)amino)quinazolin-4-yl)amino)phenyl)acrylamide-resistant human NCI-H1975 cells xenografted BALB/c mouse assessed as inhibition of EGFR phosphorylation at Tyr1068 residue in tumor at 20 mg/kg/day, ip in presence of ACK1 inhibitor, dasatinib by immunoblot analysis", "assay_type": "functional, organism-based"}, "[5]": {"target": "Epidermal growth factor receptor (Homo sapiens, UniProt P00533, L858R)", "assay": "Inhibition of human partial length EGFR (R669 to V1011 residues) L858R mutant expressed in bacterial expression system by KINOMEscan analysis"}, "[6]": {"assay": "Toxicity in BALB/c mouse xenografted with human NCI-H1975 cells assessed as change in kidney morphological changes at 5 to 20 mg/kg/day, ip by hematoxylin-eosin staining based analysis", "assay_type": "organism-based", "conditions": "in vivo, dose 5-20 mg/kg/day"}, "[7]": {"assay": "AUC (0 to t) in Sprague-Dawley rat at 1 mg/kg, iv by LC-MS analysis", "assay_type": "ADME, organism-based", "parameters": "dose 1 mg/kg, route iv", "conditions": "in vivo"}, "[8]": {"target": "Epidermal growth factor receptor (Homo sapiens, UniProt P00533, L858R/T790M)", "assay": "Inhibition of human partial length EGFR (R669 to V1011 residues) L858R/T790M mutant expressed in mammalian expression system by KINOMEscan analysis"}, "NCI-H1975 [9]": {"tested_on": "NCI-H1975", "assay": "Antitumor activity against human NCI-H1975 cells xenografted in BALB/c mouse assessed as inhibition of tumor burden at 20 mg/kg/day, ip", "assay_type": "functional, organism-based"}, "A549": {"tested_on": "A549", "assay": "Induction of apoptosis in human A549 cells assessed as induction of PARP cleavage at 0.1 to 10 uM pretreated with compound for 4 hrs followed by incubation with EGF for 10 mins by western blot analysis", "assay_type": "toxicity, cell-based", "conditions": "a549, 4.167 h, dose 0.1-10 µM, time 250 min"}, "[10]": {"target": "Epidermal growth factor receptor (Homo sapiens, UniProt P00533, T790M)", "assay": "Inhibition of human partial length EGFR (R669 to G1022 residues) T790M mutant expressed in mammalian expression system by KINOMEscan analysis"}, "A-431": {"tested_on": "A-431", "assay": "Induction of apoptosis in human A-431 cells assessed as induction of caspase-3 cleavage at 0.1 to 10 uM pretreated with compound for 4 hrs followed by incubation with EGF for 10 mins by western blot analysis", "assay_type": "toxicity, cell-based", "conditions": "a-431, 4.167 h, dose 0.1-10 µM, time 250 min"}, "NCI-H1975 [11]": {"tested_on": "NCI-H1975", "assay": "Antitumor activity against human NCI-H1975 cells xenografted in ip dosed BALB/c mouse assessed as decrease in tumor volume", "assay_type": "functional, organism-based", "conditions": "dose 5-20 mg/kg/day"}, "[12]": {"assay": "Cytotoxicity against human A-431 cells harboring wild type EGFR assessed as reduction in cell viability measured after 72 hrs by MTT assay", "assay_type": "toxicity, cell-based"}, "NCI-H1975 [13]": {"tested_on": "NCI-H1975", "assay": "Induction of apoptosis in human NCI-H1975 cells assessed as induction of caspase-3 cleavage pretreated with compound for 4 hrs followed by incubation with EGF for 10 mins by western blot analysis", "assay_type": "functional, cell-based", "conditions": "dose 0.1-10 µM, time 250.0 min"}, "[14]": {"tested_on": "Epidermal growth factor receptor (Homo sapiens), P00533 [T790M]", "assay": "Inhibition of human partial length EGFR (R669 to G1022 residues) T790M mutant expressed in mammalian expression system assessed as residual activity at 1 uM by KINOMEscan analysis"}, "NCI-H1975 [15]": {"tested_on": "NCI-H1975", "assay": "Antitumor activity against human NCI-H1975 cells xenografted in BALB/c mouse assessed as decrease in Ki-67 expression in tumor at 5 to 20 mg/kg/day, ip by immunohistochemistry", "assay_type": "functional, organism-based", "conditions": "dose 5-20 mg/kg/day"}, "Mus musculus [16]": {"tested_on": "Mus musculus", "assay": "In vivo inhibition of EGFR L858R/T790M mutant in NCI-H1975 cells xenografted BALB/c mouse assessed as inhibition of ERK-1/2 phosphorylation in tumor at 20 mg/kg/day, ip by immunoblot analysis", "assay_type": "functional, organism-based"}, "NCI-H1975 [17]": {"tested_on": "NCI-H1975", "assay": "Antiproliferative activity against N-(3-((6-Fluoro-2-((4-(4-methylpiperazin-1-yl)phenyl)amino)quinazolin-4-yl)amino)phenyl)acrylamide-resistant human NCI-H1975 cells assessed as reduction in cell viability at compound:Bosutinib concentration ratio of 3:1 to 1:3 measured after 72 hrs in presence of ACK1 inhibitor, Bosutinib by MTT assay", "assay_type": "functional, cell-based"}, "[18]": {"target": "T1, Epidermal growth factor receptor (Homo sapiens, UniProt P00533)", "assay": "Inhibition of human wild type partial length EGFR (R669 to V1011 residues) expressed in bacterial expression system by KINOMEscan analysis", "assay_type": "toxicity"}, "NCI-H1975 [19]": {"tested_on": "NCI-H1975", "assay": "Inhibition of clonogenicity in human NCI-H1975 cells assessed as inhibition of colony formation at 0.1 uM incubated for 14 days by crystal violet staining based analysis", "assay_type": "functional, cell-based", "conditions": "time 14.0 day"}, "NCI-H1975 [20]": {"tested_on": "NCI-H1975", "assay": "Antitumor activity against human NCI-H1975 cells xenografted in BALB/c mouse assessed as tumor regression at 5 to 10 mg/kg/day, ip", "assay_type": "functional, organism-based", "conditions": "dose 5-10 mg/kg/day"}, "[21]": {"assay": "Toxicity in BALB/c mouse xenografted with N-(3-((6-Fluoro-2-((4-(4-methylpiperazin-1-yl)phenyl)amino)quinazolin-4-yl)amino)phenyl)acrylamide-resistant human NCI-H1975 cells assessed as changes in kidney morphological changes at 20 mg/kg/day, ip in presence of ACK1 inhibitor, dasatinib by hematoxylin-eosin staining based analysis", "assay_type": "organism-based", "conditions": "in vivo"}, "[22]": {"target": "Epidermal growth factor receptor (Homo sapiens, UniProt P00533, EX19DEL)", "assay": "Inhibition of human EGFR exon del19 mutant by KINOMEscan analysis"}, "HCC827": {"tested_on": "HCC827", "assay": "Induction of apoptosis in human HCC827 cells assessed as induction of PARP cleavage pretreated with compound for 4 hrs followed by incubation with EGF for 10 mins by western blot analysis", "assay_type": "functional, cell-based", "conditions": "dose 0.1-10 µM, time 250.0 min"}, "[23]": {"assay": "Toxicity in BALB/c mouse xenografted with human NCI-H1975 cells assessed as change in liver morphological changes at 5 to 20 mg/kg/day, ip by hematoxylin-eosin staining based analysis", "assay_type": "organism-based", "conditions": "in vivo, dose 5-20 mg/kg/day"}, "[24]": {"target": "T1, Epidermal growth factor receptor", "assay": "Inhibition of wild type EGFR in human A-431 cells assessed as inhibition of EGF-induced Akt phosphorylation at Ser473 residue at 0.1 to 10 uM pretreated with compound for 4 hrs followed by incubation with EGF for 10 mins by western blot analysis", "assay_type": "toxicity, cell-based", "conditions": "a-431, 4.167 h, dose 0.1-10 µM, time 250 min"}, "[25]": {"target": "STE20-like serine/threonine-protein kinase (Homo sapiens, UniProt Q9H2G2)", "sequence (Q9H2G2 whole entry, looked up, the tested form may be a part)": "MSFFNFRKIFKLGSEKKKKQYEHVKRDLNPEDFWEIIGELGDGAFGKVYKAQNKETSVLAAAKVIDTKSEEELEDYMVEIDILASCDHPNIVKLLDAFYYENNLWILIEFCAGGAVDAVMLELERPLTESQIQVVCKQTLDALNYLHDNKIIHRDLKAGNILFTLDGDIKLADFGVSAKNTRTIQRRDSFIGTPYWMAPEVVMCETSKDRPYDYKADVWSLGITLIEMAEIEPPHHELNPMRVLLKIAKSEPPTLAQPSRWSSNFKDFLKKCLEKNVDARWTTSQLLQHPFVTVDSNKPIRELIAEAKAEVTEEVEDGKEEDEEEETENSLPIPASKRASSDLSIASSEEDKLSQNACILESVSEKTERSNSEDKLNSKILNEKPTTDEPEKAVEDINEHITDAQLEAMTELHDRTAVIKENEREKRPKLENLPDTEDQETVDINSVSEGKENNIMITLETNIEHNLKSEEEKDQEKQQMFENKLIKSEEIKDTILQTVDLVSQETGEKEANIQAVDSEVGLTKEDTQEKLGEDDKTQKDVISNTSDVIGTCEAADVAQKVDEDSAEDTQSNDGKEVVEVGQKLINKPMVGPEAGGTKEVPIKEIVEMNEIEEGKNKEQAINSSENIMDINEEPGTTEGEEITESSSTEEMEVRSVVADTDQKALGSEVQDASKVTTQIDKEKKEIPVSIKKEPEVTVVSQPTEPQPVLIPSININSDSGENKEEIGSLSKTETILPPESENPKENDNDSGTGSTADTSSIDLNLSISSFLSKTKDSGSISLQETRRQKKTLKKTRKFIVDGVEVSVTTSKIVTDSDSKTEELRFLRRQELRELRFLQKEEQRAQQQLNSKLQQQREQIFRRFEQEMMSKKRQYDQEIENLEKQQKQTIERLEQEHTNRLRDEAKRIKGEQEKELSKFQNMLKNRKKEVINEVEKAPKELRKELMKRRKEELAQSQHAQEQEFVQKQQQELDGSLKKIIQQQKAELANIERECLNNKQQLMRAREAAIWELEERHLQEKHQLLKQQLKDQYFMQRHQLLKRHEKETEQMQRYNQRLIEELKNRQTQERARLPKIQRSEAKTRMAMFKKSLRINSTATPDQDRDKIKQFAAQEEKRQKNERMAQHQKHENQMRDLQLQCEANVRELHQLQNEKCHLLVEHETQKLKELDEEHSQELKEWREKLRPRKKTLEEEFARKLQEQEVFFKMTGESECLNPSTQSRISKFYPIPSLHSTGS", "assay": "Inhibition of human wild type partial length SLK (S14 to A307 residues) expressed in bacterial expression system assessed as residual activity at 1 uM by KINOMEscan analysis"}}, "note": "Calls of active or inactive are those of the source. The rule behind the calls is not given here.", "data": [{"compound": "C=CC(=O)Nc1cccc(Nc2nc(Nc3ccc(N4CCN(C)CC4)cc3)nc3ccc(F)cc23)c1", "values": [{"measurement": "AUC(0-inf)", "setting": "[1]", "value": 1050, "unit": "ng·h/mL"}, {"measurement": "Activity", "setting": "[2]", "value": "Active"}, {"measurement": "inhibition", "setting": "Mus musculus [3]", "value": "Dose-Dependent Effect"}, {"measurement": "inhibition", "setting": "Mus musculus [4]", "value": "Active"}, {"measurement": "IC50", "setting": "[5]", "value": 2.1, "unit": "nM"}, {"measurement": "Activity", "setting": "[6]", "value": "Non-Toxic"}, {"measurement": "AUC(0-t)", "setting": "[7]", "value": 1040, "unit": "ng·h/mL"}, {"measurement": "IC50", "setting": "[8]", "value": 3.5, "unit": "nM"}, {"measurement": "Activity", "setting": "NCI-H1975 [9]", "value": "Active"}, {"measurement": "Activity", "setting": "A549", "value": "Non-Toxic"}, {"measurement": "IC50", "setting": "[10]", "value": 6.7, "unit": "nM"}, {"measurement": "Activity", "setting": "A-431", "value": "Non-Toxic"}, {"measurement": "Activity", "setting": "NCI-H1975 [11]", "value": "Dose-Dependent Effect"}, {"measurement": "IC50 at 72 h", "setting": "[12]", "value": 2490, "unit": "nM"}, {"measurement": "Activity", "setting": "NCI-H1975 [13]", "value": "Dose-Dependent Effect"}, {"measurement": "Activity", "setting": "[14]", "value": 3, "unit": "%"}, {"measurement": "Activity", "setting": "NCI-H1975 [15]", "value": "Active"}, {"measurement": "inhibition", "setting": "Mus musculus [16]", "value": "Active"}, {"measurement": "Activity", "setting": "NCI-H1975 [17]", "value": "Active"}, {"measurement": "IC50", "setting": "[18]", "value": 1290, "unit": "nM"}, {"measurement": "inhibition", "setting": "NCI-H1975 [19]", "value": "Active"}, {"measurement": "Activity", "setting": "NCI-H1975 [20]", "value": "Active"}, {"measurement": "Activity", "setting": "[21]", "value": "Non-Toxic"}, {"measurement": "IC50", "setting": "[22]", "value": 1.3, "unit": "nM"}, {"measurement": "Activity", "setting": "HCC827", "value": "Dose-Dependent Effect"}, {"measurement": "Activity", "setting": "[23]", "value": "Non-Toxic"}, {"measurement": "inhibition (INH)", "setting": "[24]", "value": "Not Active"}, {"measurement": "Activity", "setting": "[25]", "value": 29, "unit": "%"}]}]}
